From patent US8853141B2, “Sulfomethylsuccinates, process for making same and compositions containing same” (Stepan Company, priority 2009, dated 2014) come the findings set out here.

The nature of this series: Surface activity, K12 Krüss tensiometer, automatic titration for CMC. Format: physicochemical. The method, then: Surface activity was measured with a K12 Krüss tensiometer at 25° C. in deionized water. Automatic titration was used to determine the critical micelle concentration (CMC). No pH adjustment was made for the measurement.

As to dodecyl sulfosuccinate, the “critical micelle concentration (CMC)” value was “about 120 mg/L”.
